Reference: patent US8088758B2, “17β-hydroxysteroid dehydrogenase type I inhibitors” (Abbott Products GmbH, priority 2003, dated 2012)

Target: T1, recombinant human 17β-hydroxysteroid dehydrogenase type 1 (Homo sapiens, UniProt P14061)
T1 construct: made in house; host or cells: Sf9 insect cells (baculovirus, Bac to Bac Expression System)
T1 sequence (P14061 1-328): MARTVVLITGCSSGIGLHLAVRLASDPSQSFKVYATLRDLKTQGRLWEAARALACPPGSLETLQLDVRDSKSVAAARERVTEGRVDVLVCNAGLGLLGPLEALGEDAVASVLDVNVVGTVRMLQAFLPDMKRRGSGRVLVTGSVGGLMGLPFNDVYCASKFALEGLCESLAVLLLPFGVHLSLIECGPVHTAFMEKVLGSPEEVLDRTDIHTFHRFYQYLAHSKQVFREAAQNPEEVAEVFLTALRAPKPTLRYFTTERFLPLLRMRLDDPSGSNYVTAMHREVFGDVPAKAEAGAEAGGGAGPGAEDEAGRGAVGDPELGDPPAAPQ
Test: Inhibition of recombinant human 17β-hydroxysteroid dehydrogenase type 1 (conversion of 3H-estrone to estradiol, HPLC)
Format: biochemical
Details: 30 nM 3H-estrone, 1 mM NADPH, 30 min at RT; for inhibition at 0.1 µM: inhibitor 100 nM, read-out: Inhibition of rec. 17β-HSD1 (% inhibition), 100 nM; for inhibition at 1 µM: inhibitor 1 μm, read-out: Inhibition of rec. 17β-HSD1 (% inhibition), 1 μm
Procedure: 1. Inhibition of the 17β-hydroxysteroid Dehydrogenase Type 1 Enzyme
17β-HSD1 Purification: Recombinant baculovirus was generated by the “Bac to Bac Expression System” (Invitrogen). Recombinant bacmid was transfected to Sf9 insect cells using “Cellfectin Reagent” (Invitrogen). 60 h later cells were harvested; the microsomal fraction was isolated as described by Puranen et al. 1994. Aliquots were stored frozen until determination of enzymatic activity.
Assay—Inhibition of Recombinant Human 17β-hydroxysteroid Dehydrogenase Type 1:
Recombinant protein (0.1 μg/ml) was incubated in 20 mM KH2PO4 pH 7.4 with 30 nM 3H-estrone and 1 mM NADPH for 30 min at RT, in the presence of potential inhibitors at concentrations of 1 μM or 0.1 μM. Inhibitor stock solutions were prepared in DMSO. Final concentration of DMSO was adjusted to 1% in all samples. The enzyme reaction was stopped by addition of 10% trichloroacetic acid (final concentration). Samples were centrifuged in a microtiter plate at 4000 rpm for 10 min. Supernatants were applied to reverse phase HPLC on a Waters Symmetry C18 column, equipped with a Waters Sentry Guard column. Isocratic HPLC runs were performed at RT at a flow rate of 1 ml/min of acetonitrile:water 48:52 as running solvent. Radioactivity was monitored in the eluate by a Packard Flow Scintillation Analyzer. Total radioactivity for estrone and estradiol were determined in each sample and percent conversion of estrone to estradiol was calculated according to the following formula:
Percent inhibition was calculated as follows: % inhibition=100−% conversion

Compound	inhibition at 0.1 µM [%]	inhibition at 1 µM [%]
COc1ccc2c(c1)CC[C@H]1[C@@H]3[C@H](CCCCOC(=O)Nc4cccc(F)c4)CC(=O)[C@@]3(C)CC[C@H]21 [Example 751]	27.7	67.7
COc1ccc2c(c1)CC[C@H]1[C@@H]3[C@H](CCCCCC(=O)NCc4ccc(Cl)cc4)CC(=O)[C@@]3(C)CC[C@H]21 [Example 362]	35.1	75.1
COc1ccc2c(c1)CC[C@H]1[C@@H]3[C@H](CCCCCC(=O)NCc4ccc5c(c4)OCO5)CC(=O)[C@@]3(C)CC[C@H]21 [Example 353]	46.3	89.5
CN(C[C@H]1CC(=O)[C@@]2(C)CC[C@@H]3c4ccc(O)cc4CC[C@H]3[C@H]12)S(=O)(=O)c1cc(S(=O)(=O)c2ccccc2)cs1 [Example 696]	35.7	80.5
COc1ccc2c(c1)CC[C@H]1[C@@H]3[C@H](CCCCNC(=O)NCc4ccccc4)CC(=O)[C@@]3(C)CC[C@H]21 [Example 477]	31.7	79.5
COc1ccc2c(c1)CC[C@H]1[C@@H]3[C@H](CCC(=O)NCc4ccc5c(c4)OCO5)CC(=O)[C@@]3(C)CC[C@H]21 [Example 315]	29	74.4
COc1ccc2c(c1)CC[C@H]1[C@@H]3[C@H](CCCCCC(=O)NCc4ccncc4)CC(=O)[C@@]3(C)CC[C@H]21 [Example 357]	31.1	85.2
CN(C[C@H]1CC(=O)[C@@]2(C)CC[C@@H]3c4ccc(O)cc4CC[C@H]3[C@H]12)S(=O)(=O)c1cccc(Cl)c1 [Example 693]	25.8	80.1
COc1ccc2c(c1)CC[C@H]1[C@@H]3[C@H](CCCCC(=O)NCCc4cccs4)CC(=O)[C@@]3(C)CC[C@H]21 [Example 346]	58.2	91.7
COc1ccc2c(c1)CC[C@H]1[C@@H]3[C@H](CCCCC(=O)NCc4ccccc4OC)CC(=O)[C@@]3(C)CC[C@H]21 [Example 341]	38.1	88
COc1ccc2c(c1)CC[C@H]1[C@@H]3[C@H](CCCCC(=O)NCc4ccc(Cl)cc4)CC(=O)[C@@]3(C)CC[C@H]21 [Example 343]	47.1	86
CN(C[C@H]1CC(=O)[C@@]2(C)CC[C@@H]3c4ccc(O)cc4CC[C@H]3[C@H]12)S(=O)(=O)c1cccs1 [Example 682]	49.2	91.8
C[C@]12CC[C@@H]3c4ccc(O)cc4CC[C@H]3[C@@H]1[C@@H](CNS(=O)(=O)c1ccc([N+](=O)[O-])cc1)CC2=O [Example 667]	30.3	72.3
C[C@]12CC[C@@H]3c4ccc(O)cc4CC[C@H]3[C@@H]1[C@@H](CNS(=O)(=O)c1cccs1)CC2=O [Example 662]	76.9	94.8
COc1ccc2c(c1)CC[C@H]1[C@@H]3[C@H](CCCCCC(=O)NCc4ccco4)CC(=O)[C@@]3(C)CC[C@H]21 [Example 350]	27.7	80.7
COc1ccc2c(c1)CCC1C2CC[C@]2(C)C(=O)C[C@@H](CCCC(=O)NCCc3ccc(O)cc3)C12 (stereo partly shown) [Example 22]	27.3	57.8
COc1ccc2c(c1)CC[C@H]1[C@@H]3[C@H](CCC(=O)Nc4ncc(C)s4)CC(=O)[C@@]3(C)CC[C@H]21 [Example 329]	78.9	96.2
COc1ccc2c(c1)CC[C@H]1[C@@H]3[C@H](CCCCCC(=O)N4CCOCC4)CC(=O)[C@@]3(C)CC[C@H]21 [Example 354]	28.7	80.3
COc1ccc2c(c1)CC[C@H]1[C@@H]3[C@H](CCCNC(=O)NCc4ccccc4)CC(=O)[C@@]3(C)CC[C@H]21 [Example 452]	38.6	82.9

Compound	inhibition at 0.1 µM [%]	inhibition at 1 µM [%]
C[C@]12CC[C@@H]3c4ccc(O)cc4CC[C@H]3[C@@H]1[C@@H](CNS(=O)(=O)c1cc(S(=O)(=O)c3ccccc3)cs1)CC2=O [Example 679]	26.5	74.6
COc1ccc2c(c1)CC[C@H]1[C@@H]3[C@H](CCCCOC(=O)Nc4cccc([N+](=O)[O-])c4)CC(=O)[C@@]3(C)CC[C@H]21 [Example 754]	29.3	65.1
COc1ccc2c(c1)CC[C@H]1[C@@H]3[C@H](CCCCC(=O)NCCc4c[nH]c5c(C)cccc45)CC(=O)[C@@]3(C)CC[C@H]21 [Example 347]	38	77.2
COc1ccc2c(c1)CCC1C2CC[C@]2(C)C(=O)C[C@H](C(=O)Nc3ncc(C)s3)C12 (stereo partly shown) [Example 105]	33.8	81
COc1ccc2c(c1)CC[C@H]1[C@@H]3[C@H](CCCNC(=O)NC(C)C)CC(=O)[C@@]3(C)CC[C@H]21 [Example 449]	26	82.7
CCCCNC(=O)CCCCC[C@@H]1CC(=O)[C@@]2(C)CC[C@@H]3c4ccc(OC)cc4CC[C@H]3[C@H]12 [Example 365]	33.7	86.4
COc1ccc(NC(=O)NCCCC[C@@H]2CC(=O)[C@@]3(C)CC[C@@H]4c5ccc(OC)cc5CC[C@H]4[C@H]23)cc1 [Example 471]	28.7	77
CCOC(=O)CNNC(=O)CCCCC[C@@H]1CC(=O)[C@@]2(C)CC[C@@H]3c4ccc(OC)cc4CC[C@H]3[C@H]12 [Example 414]	44.9	49.9
CN(C[C@H]1CC(=O)[C@@]2(C)CC[C@@H]3c4ccc(O)cc4CC[C@H]3[C@H]12)S(=O)(=O)c1ccc(F)cc1 [Example 685]	36	85.6
COc1ccc2c(c1)CC[C@H]1[C@@H]3[C@H](CCCC(=O)NCc4ccco4)CC(=O)[C@@]3(C)CC[C@H]21 [Example 7]	28.7	63.4
COc1cccc(NC(=O)NCCC[C@@H]2CC(=O)[C@@]3(C)CC[C@@H]4c5ccc(OC)cc5CC[C@H]4[C@H]23)c1 [Example 443]	39.8	84.1
COc1ccc2c(c1)CCC1C2CC[C@]2(C)C(=O)C[C@@H](CCCC(=O)NCCc3cccs3)C12 (stereo partly shown) [Example 29]	29.6	69.3
CNC(=O)CCC[C@@H]1CC(=O)[C@@]2(C)CC[C@@H]3c4ccc(O)cc4CC[C@H]3[C@H]12 [Example 4A, 4-(3-Hydroxy-17-oxo-estra-1,3,5(10)-trien-15β-yl)-N-methyl-butyramide]	47.1	66
COc1ccc2c(c1)CC[C@H]1[C@@H]3[C@H](CCCCCC(=O)NC4CCCCC4)CC(=O)[C@@]3(C)CC[C@H]21 [Example 348]	30.5	82.4
COc1ccc2c(c1)CC[C@H]1[C@@H]3[C@H](CCCCCC(=O)NCc4cccc(F)c4)CC(=O)[C@@]3(C)CC[C@H]21 [Example 361]	35.8	84.2
COc1ccc(NC(=O)NCCC[C@@H]2CC(=O)[C@@]3(C)CC[C@@H]4c5ccc(OC)cc5CC[C@H]4[C@H]23)cc1 [Example 446]	72.4	94.2
COc1ccc2c(c1)CC[C@H]1[C@@H]3[C@H](CCCCC(=O)NCc4ccco4)CC(=O)[C@@]3(C)CC[C@H]21 [Example 333]	47.9	91
COc1ccc2c(c1)CC[C@H]1[C@@H]3[C@H](CCC(=O)NCc4cccc(F)c4)CC(=O)[C@@]3(C)CC[C@H]21 [Example 322]	45.7	66.3
C[C@]12CC[C@@H]3c4ccc(O)cc4CC[C@H]3[C@@H]1[C@@H](CCCC(=O)NCc1ccccc1)CC2=O [Example 39, N-Benzyl-4-(3-hydroxy-17-oxo-estra-1,3,5(10)-trien-15α-yl)-butyramide]	41.8	82.4
